The record followed here is patent publication US9668479B2, “Modulating germination of Paenibacillus larvae” (THE BOARD OF REGENTS OF THE NEVADA SYSTEM OF HIGHER …, priority 2013, dated 2017).

Molecules are shown by their SMILES.

Experiment [1] relates to P. larvae spores. Nature of the experiment: Inhibition of P. larvae spore germination by indole and phenol, IC50 titration (Example 1). The experiment is classed as cell-based, Paenibacillus larvae subsp. pulvifaciens strain ATCC 49843. Particulars: for IC50: Paenibacillus larvae. The method, then:
The decrease in optical density is proportional to spore germination (Powell, J. Gen. Microbiol., 4:330-338, 1950). Changes in light diffraction during spore germination were monitored at 580 nm (OD580) on a Biomate 5 (ThermoElectron Corporation, Waltham, Mass.) or a Tecan Infinite m200 (Tecan group, Männedorf, Switzerland) spectrophotometer. Experiments were carried out in 96-well plates (200 μL/well). In preparation for germination assays, P. larvae spore suspensions were washed three times with water. Spores were then heat activated at 70° C. for 30 minutes. The heat-activated spores were allowed to reach room temperature and transferred to 0.1 M sodium phosphate buffer (pH 7.0) to an approximate OD580 of 0.70. Spores were monitored for auto-germination for 30 minutes. […] Putative germinants were added individually or in combinations to a final concentration of 3 mM. Experiments were performed in triplicate with at least two different spore preparations. After germinant addition, OD580 of the spore suspension was measured every minute for an hour. Relative OD values were derived by dividing each OD580 reading by the initial OD580. Spore germination rates (v) were calculated from the initial linear decrease in relative OD (Akoachere et al., supra). Germination rates were set to 100% for P. larvae spores that had the fastest germination rate in an assay. Germination rates for other conditions were divided by the maximum germination rate for that assay and are reported as percent germination. […] Spore germination was confirmed in selected samples by microscope observation of Schaeffer-Fulton stained aliquots (Schaeffer and Fulton, supra).
After 15 minutes of incubation, spores were treated with 3 mM L-tyrosine/3 mM uric acid. The germination rate was set to 100% for P. larvae spores germinated in the absence of inhibitor. Germination rates for other conditions were divided by the uninhibited maximum germination rate obtained with 3 mM L-tyrosine/3 mM uric acid, and are reported as percent germination. Percent germination was plotted against inhibitor concentrations. The resulting sigmoidal curves were fitted using the four parameter logistic function in SigmaPlot v.9 to calculate IC50 values.

Experiment [2] deals with P. larvae spores. Nature of the experiment: Inhibition of P. larvae spore germination, IC50 titration of indole analogs (Example 2). The experiment is classed as cell-based, Paenibacillus larvae subsp. pulvifaciens strain ATCC 49843. The settings on record: Table 2, saturating uric acid/L-tyrosine concentrations, read-out: IC50. The method, then:
After a 15 minute incubation, the spores were treated with 3 mM L-tyrosine-3 mM uric acid. The germination rate was set to 100% for P. larvae spores germinated in the absence of inhibitor. Germination rates for other conditions were divided by the uninhibited maximum germination rate obtained with 3 mM L-tyrosine-3 mM uric acid, and are reported as percent germination. Percent germination was plotted against the inhibitor concentrations.

Experiment [3] concerns honey bee larvae contacted with P. larvae spores. Nature of the experiment: Survival of honey bee larvae fed diet with indole analogs and P. larvae spores. The experiment is classed as in vivo. The settings on record: 0.5 mM in larval diet (wj) plus P. larvae spores; for survival of honey bee larvae vs P. larvae spores alone: 7-day development, p<0.002. As for the experimental part: First instar honey bee larvae were obtained from two colonies headed by naturally mated queens (Honey Bee Genetics, Vacaville Calif.). Queens were trapped on empty frames within a cage constructed with queen excluder. Worker bees can fit through the excluder but the queen cannot exit the cage. The frame was placed within the brood chamber to stimulate egg laying by the queen overnight. Eggs were incubated in the hive for 4 days to allow newly hatched larvae to be fed by nurse bees. First instar honey bee larvae were brought into the laboratory and stored in a 35° C. 85% relative humidity chamber before grafting.
Sterile six well plates with a well volume of 17.0 ml were filled with 2.5 ml of pre-warmed artificial worker jelly. Honey bee larvae were transferred into each well using the thin tongue made of flexible plastic from a Chinese grafting tool. The plastic grafting tool was decontaminated with 70% ethanol throughout usage. Grafting was performed in the sterile environment of a honey bee laboratory, and honey bee larvae were then transferred to a bacterial spore laboratory for control and spore exposure treatments.
Artificial worker jelly was prepared using a lyophilized royal jelly, D-glucose, D-fructose, yeast extract, and autoclaved double distilled water. Ingredients minus lyophilized royal jelly were dissolved in autoclaved double distilled water. Lyophilized royal jelly was added to this sugar-yeast extract solution and mixed thoroughly with a vortex mixer. Artificial diet was prepared an hour prior to use for larval rearing. To reduce the development of worker-queen hybrids because of nutrition, the composition and amounts of artificial worker jelly were controlled in every larval stage.
Honey bee larvae were incubated in an air tight plastic container placed inside an incubator. The desired relative humidity (95%) and temperature (35° C.) was verified with an iButton data logger (Maxim Integrated; San Jose, Calif.). The appropriate relative humidity was obtained by placing a solution of 20% glycerol by weight. The plastic containers were was decontaminated throughout usage with detergent, 70% ethanol, and treated with an ultraviolet lamp overnight.
Feeding of diets was performed daily in different amounts according to Table 2. The amount of diet consumed by larvae was assumed based on published literature. A micropipette was used to place a food drop next to the mouth of the larvae. Drowning was avoided by maintaining the appropriate humidity and water content of diet. Forty first and second instar larvae were placed into one well of a six well plate. Third instar larvae were transferred individually to 48 well plates filled with fresh food.
Larval survival was determined daily by observing signs of respiration, disease symptoms, and other abnormalities with a stereo microscope. The number of dead larvae was recorded, and surviving larvae were fed fresh food. The start of pupation was indicated by the appearance of uric acid crystals and light yellow excretions in the remaining food.
The larval survival data was analyzed using the LogRank test in SigmaPlot.

Setting [4] is: 15 minutes incubation, then 3 mM L-tyrosine/3 mM uric acid, read-out: IC50 inhibition of P. larvae spore germination.
The mark [5] stands for this setting: Table 1, 15 minutes prior to addition of 3 mM uric acid and 3 mM L-tyrosine, standard deviations in parentheses, N/A = no activity under the conditions tested, read-out: IC50.

As to `Cn1ccc2ccccc21` [1-N-methylindole], in experiment [1] (15 minutes incubation, then 3 mM L-tyrosine/3 mM uric acid), the “IC50 inhibition of P. larvae spore germination” value is reported as “neither activated nor inhibited”.

Take `Cc1c[nH]c2ccccc12` [3-methylindole]: the IC50 in experiment [1] (setting [4]) and in experiment [1] (setting [5]) was 380 µM throughout.

As for `N#Cc1cccc2[nH]ccc12` [4-cyanoindole], the IC50 (in general, the concentration that inhibits the measured activity by half) in experiment [2] (Paenibacillus larvae) came out at 200 ± 20 µM.

With `Brc1ccc2[nH]ccc2c1` [5-bromindole], in experiment [3], the “ranking of effect on larval survival among analogs” value is reported as “greatest effect” and the “survival of honey bee larvae vs P. larvae spores alone” value (“survival … vs P. larvae spores alone” below) was “increased survival”. In addition, in experiment [2], the IC50 came to 60 ± 70 µM.

Consider `Fc1ccc2[nH]ccc2c1` [5-fluoroindole], for which the 50% inhibitory concentration (IC50) in experiment [2] (Paenibacillus larvae) is 120 ± 20 µM.

For the molecule `Oc1ccc2[nH]ccc2c1` [5-hydroxyindole], the half-maximal inhibitory concentration (IC50) in experiment [2] (Paenibacillus larvae) is 550 ± 170 µM.

Regarding `Cc1ccc2[nH]ccc2c1` [5-methylindole], the IC50 in experiment [1] (setting [4]) and in experiment [1] (setting [5]) was 370 µM each time.

On to `O=[N+]([O-])c1ccc2[nH]ccc2c1` [5-nitroindole], for which, in experiment [3], the “survival … vs P. larvae spores alone” value is recorded as “increased survival”. Further, the IC50 in experiment [2] (Paenibacillus larvae) stood at 70 ± 10 µM.

On to `Brc1ccc2cc[nH]c2c1` [6-bromoindole], for which the “survival … vs P. larvae spores alone” value in experiment [3] is given as “increased survival”. In experiment [2] (Paenibacillus larvae), the IC50 was 60 ± 60 µM.

In the case of `Clc1ccc2cc[nH]c2c1` [6-chloroindole], the “survival … vs P. larvae spores alone” value in experiment [3] is “increased survival”. In addition, the IC50 in experiment [2] (Paenibacillus larvae) stood at 20 µM.

In the case of `N#Cc1ccc2cc[nH]c2c1` [6-cyanoindole], the IC50 in experiment [2] (Paenibacillus larvae) came to 110 ± 10 µM.

Turning to `Fc1ccc2cc[nH]c2c1` [6-fluoroindole], the IC50 in experiment [2] (Paenibacillus larvae) was 120 ± 10 µM.

Take `Cc1cccc2cc[nH]c12` [7-methylindole]: the half-maximal inhibitory concentration (IC50) in experiment [1] (setting [4]) and in experiment [1] (setting [5]) was 280 µM in each case.
